Test results from PMC7915867, “Discovery of a Small Molecule Inhibitor of Human Adenovirus Capable of Preventing Escape from the Endosome” (International Journal of Molecular Sciences, 2021).
Values joined by “and” are separate entries in the source; they are usually repeats but may differ in a detail not shown here. Equal entries are not always repeated.

Key:
[1] = system: HAdV5-GFP; experiment: microbe, parasite or virus in culture; type: cell-based, human adenovirus
Method: Compounds were measured at concentrations of 10 μM and in a dose−response assay ranging from 10 to 0.3 μM using low MOI infections (0.06 vp/cell) in a plaque assay. […] Cells were infected with HAdV5-GFP (0.06 vp/cell) and rocked for 2 h at 37 °C, when cells reached 80%–90% confluency. When the incubation was finished, the inoculum was removed followed by washing the cells once with PBS. […] The compounds were also added to the mixture in concentrations ranging from 10 to 0.3 μM. After incubation for 7 days at 37 °C, we scanned plates with a Typhoon FLA 9000 imager (GE Healthcare Life Sciences, MA, USA) and quantified plaques with ImageJ [47].

[2] = Cytotoxicity assay (AlamarBlue); type: cell-based; settings: human, A549 cells, A549 cell line
Method: The cytotoxicity of these derivatives was tested by commercial kit AlamarBlue® (Ref. DAL1025, Invitrogen, MA, USA). […] The cytotoxic concentration 50 (CC50) value was obtained by using the statistical package GraphPad Prism. This assay was performed in duplicate.

[3] = system: wild-type HAdV5; experiment: Virus yield reduction (virus burst assay); type: cell-based, human adenovirus
Method: After 48 h, cells were harvested and subjected to three rounds of freeze/thaw. Serial dilutions of clarified lysates were titrated on A549 cells (3 × 10^4 cells/well), and we calculated TCID50 values using an endpoint dilution method.

[4] = system: HAdV-5 DNA replication; experiment: HAdV DNA quantification by real-time PCR (DNA replication); type: cell-based, human adenovirus; settings: Human adenovirus sp., A549, 24 h; read-out: Inhibition of HAdV-5 DNA replication (qPCR)
Method: All samples were carried out in duplicate. After incubation for 24 h at 37 °C, DNA was purified from the cell lysate with the E.Z.N.A.® Tissue DNA Kit (Omega Bio-tek, Norcross, GA, USA) following the manufacturer’s instructions. TaqMan primers and probes for a common region of the HAdV5 hexon were designed with the GenScript Real-Time PCR (TaqMan) Primer Design software (GenScript, Leiden, Netherlands). Oligonucleotides sequences were: AQ1: 5′-GCCACGGTGGGGTTTCTAAACTT-3′; AQ2: 5′-GCCCCAGTGGTCTTACATGCACAT-3′; Probe: 6-FAM-5′-TGCACCAGACCCGGGCTCAGGTACTCCGA-3′-TAMRA. Real-time PCR mixtures contained 9.5 μL of the purified DNA, AQ1 and AQ2 at a concentration of 200 nM each and Probe at a concentration of 50 nM in a total volume of 25 μL. The PCR cycling protocol was 95 °C for 3 min followed by 40 cycles of 95 °C for 10 s and 60 °C for 30 s. Human glyceraldehyde-3-phosphate dehydrogenase (GAPDH) gene was applied as internal control. Oligonucleotides sequences for GAPDH and conditions were previously reported by Rivera et al..
For quantification, gene fragments from hexon and GAPDH were cloned into the pGEM-T Easy vector (Promega, MA, USA), and known concentrations of template were used to produce a standard curve in parallel for each experiment. All assays were done in thermal cycler LightCycler® 96 System (Roche, Basel, Switzerland).

[5] = system: wild-type HAdV5; experiment: Nuclear-associated HAdV genomes; type: cell-based, human adenovirus; settings: 45 min postinfection, A549 cells, 2000 vp/cell, 10-fold IC50
Method: The nuclear delivery of HAdV genomes was evaluated by real-time PCR following nuclear isolation from infected cells. […] Forty-five minutes after infection, A549 cells were trypsinized, collected, and then washed twice with PBS. After that, we separated cytoplasmic and nuclear fractions using a hypotonic buffer solution and NP-40 detergent and resuspended the cell pellet in 500 μL of 1 × hypotonic buffer (20 mM Tris-HCl pH 7.4, 10 mM NaCl, 3 mM MgCl2). After incubation for 15 min at 4 °C, 25 μL of NP-40 was added and the samples were vortexed. The homogenates were centrifuged for 10 min at 835g and 4 °C. After the removal of the cytoplasmic fraction (supernatant), HAdV DNA was separated from the nuclear fraction (pellet) and from the cytoplasmic fraction using the E.Z.N.A.® Tissue DNA Kit (Omega Bio-tek, Norcross, GA, USA).

[6] = system: HAdV5-GFP; experiment: Time of addition assay; type: cell-based, human adenovirus; settings: 10-fold IC50; 293β5 cells, HAdV5-GFP 2000 vp/cell
[7] = system: HAdV5; experiment: HAdV-mediated endosome disruption (α-sarcin co-delivery assay); type: cell-based, human adenovirus; settings: A549 cells, 10-fold IC50, virus below 12 ng
Method: A549 cells (~20,000 cells/well) were incubated in DMEM without cysteine or methionine supplemented with 10% dialyzed FBS [DMEM (−)] in black 96-well plates for 1 h before infection. […] The medium was then removed and replaced with 50 μL DMEM (−) containing 0.1 mg/mL α-sarcin (Santa Cruz Biotechnology, Dallas, TX, USA) and the virus and drug mixtures. After 2 h at 37 °C, the Click-iT HPG Alexa Fluor 488 Protein Synthesis Assay Kits (Invitrogen, MA, USA) were used to analyze protein synthesis according to the manufacturer’s instructions. The incorporation of the amino acid analog of methionine L-homopropargylglycine (HPG) containing Alexa Fluor 488 azide was measured using a Typhoon 9410 imager (GE Healthcare Life Sciences, MA, USA) and calculated subtracting the background level of the control well containing L-homopropargylglycine (HPG) and α-sarcin but not virus (100% incorporation).

[8] = system: HAdV-GFP; experiment: Thermostability assay (capsid stabilization); type: cell-based, human adenovirus; settings: 50 μM, A549 cells
Method: HAdV-GFP (37.5 ng) was incubated with compound 16 (50 µM) or the same volume of DMSO for 1 h in complete DMEM. Parallel samples were incubated for 10 min at the indicated temperatures, cooled to r.t., and added to A549 cells on ice to synchronize the infection. After the incubation, cells were washed twice with PBS 1x to remove the nonattached virus and the excess of compound 16 and DMSO. Cells were then incubated for 24 h at 37 °C and 5% CO2 before being visualized for GFP expression in an Olympus inverted microscope Model IX71 (Hamburg, Germany) and analyzed by capturing representative images of each condition using the CellSens Dimension platform (Olympus, Hamburg, Germany).

[9] = system: human cytomegalovirus (HCMV); experiment: HCMV DNA replication assay; type: cell-based; settings: HFF cells, 72 h postinfection, 10-fold IC50 of HAdV plaque assay
Method: The broad antiviral activity of compound 16 was tested using human cytomegalovirus (HCMV) in a DNA replication assay. To avoid the influence of newly generated viral particles from subsequent rounds of infection, HCMV DNA was extracted from HFF cells at 72 h postinfection and quantified in a single round of infection as a measurement of the DNA replication efficiency.

## O=C(NCC1CCCCC1)c1cc(Cl)ccc1O [Compound 16, 5-Chloro-N-(cyclohexylmethyl)-2-hydroxybenzamide]
[1]; HAdV5-GFP, low MOI, 293β5 cell line
  Plaque Assay IC50: submicromolar
[1]; Human adenovirus sp., read-out: Plaque Assay (10 μM) (%) Inhibition
  inhibition at 10 µM: 100%
[1]; Human adenovirus sp., read-out: Plaque Assay IC50
  IC50: 780 ± 10 nM
[1]; ratio of CC50 to IC50 in plaque assay
  Selectivity Index (SI): 116.9
[2]
  CC50 at 48 h: 91.2 ± 18.4 µM
[3]; 16 at 10-fold IC50 versus niclosamide 5 μM
  Virus yield reduction compared to niclosamide: 2.5 fold
[3]; A549 cells, HAdV 100 vp/cell, 48 h, niclosamide 5 μM, 16 at 10-fold IC50, versus DMSO
  Virus Yield Reduction: 208 fold and 208 ± 108 fold
[4]
  inhibition at 7.8 µM: 50%
[5]
  Inhibition of HAdV DNA accessibility to the nucleus: more than 99%
[6]
  Inhibition of HAdV infection, compound added at 0 min p.i.: 95.3%
  Inhibition of HAdV infection, compound added at 20 min p.i.: 30.7%
[7]
  HAdV-mediated endosome lysis: prevented HAdV-mediated endosome lysis
[8]
  GFP expression 24 h postinfection, virus heated to 48 °C: significant levels of GFP expression
  GFP expression 24 h postinfection, virus heated to 52 °C: some residual expression
[9]
  Decrease of total HCMV DNA compared to DMSO control: 95%
